The source of these data is patent US20250127696A1, “COMPOSITION FOR PREVENTING OR IMPROVING SKIN-AGING CONTAINING A THYMOL ESTER-BASED COMPOUND” (AMOREPACIFIC CORPORATION, priority 2023, published 2025).

Each structure is given as a SMILES string.

Common to all, as to type: cell-based, human
The subject of assay [1] is melanocytes. Description: Observation of cell morphology after UVB-induced senescence. The note with it: UVB 5 mJ/cm^2 twice at 24-hour intervals, then treated and incubated 2 weeks; FIG. 3. Here is the method:
(§1) Melanocytes were purchased from Cascade Biologics as cells cultured in the foreskin of newborn African-American males, and cultured using Medium254 medium mixed with human melanocyte growth supplement (Life technologies).
Melanocytes were irradiated with 5 mJ/cm^2 of UVB twice at 24-hour intervals using a 1 UVB UV irradiator (Bio-Sun), and then treated with Melasolv and incubated for 2 weeks. A photograph of the cells is taken using an optical microscope (ECLIPSE TS100 from NIKON), and the shape of the cells is examined. Referring to FIG. 3, when treated with ultraviolet (UVB) that induce cellular senescence (Chr UVB; Chronic UVB in FIG. 3), it could be confirmed that the skin cells were flattened or enlarged, as shown by three spots that were slightly larger than the others in the middle of the photograph.

Assay [2] deals with β-galactosidase in melanocytes. In words: beta-galactosidase assay (senescence staining) after UVB. The note with it: UVB 5 mJ/cm^2 twice at 24-hour intervals, then treated and incubated 2 weeks; vs UVB only; FIG. 4. On the procedure: as §1
Melanocytes were irradiated with 5 mJ/cm^2 of UVB twice at 24-hour intervals using a 1 UVB UV irradiator (Bio-Sun), and then treated with Melasolv and incubated for 2 weeks. To measure the degree of cellular senescence, a beta-galactosidase assay was performed using a beta-gal staining kit from Life technologies. A photograph was taken using an optical microscope (ECLIPSE TS100 from NIKON), and then the number of cells with stained beta-galactosidase was counted.

The subject of assay [3] is melanocytes. Description: Predicted transcriptome age (RNA-age) of melanocytes. The note with it: 10 ppm, 24 hours, vs untreated control; RNAAgeCalc on FPKM data, skin tissue; FIG. 2. Here is the method: as §1
RNA was extracted from melanocytes treated with 10 ppm of Melasolv for 24 hours using TRIzol reagent (Life technologies). This RNA was used to prepare a library using the Illumina TruSeq Stranded Total RNA Library Prep kit (Illumina, San Diego, CA, USA), and then RNA-sequencing was performed using the NovaSeq 6000 platform (Illumina).
Thereafter, a model for predicting age based on approximately 16,000 gene expression values of RNA-seq data was applied to measure the RNA-age of the untreated control melanocytes (—in the graph of FIG. 2) and the RNA-age of the melanocytes treated with Melasolv. Specifically, the RNA-age used RNAAgeCalc package, which can calculate transcriptome age from RNAseq data. Among the transcriptome data, FPKM data was entered as input and skin tissue was entered as an argument for calculation. • (RNAAgeCalc pakage: https://bioconductor.org/packages/release/bioc/html/RNAAgeCalc.html, • Ren X, Kuan P F (2020). “A multi-tissue transcriptional age calculators.” PLOS ONE, 15(8),-20. doi: 10.1371/journal.pone.0237006)

On to `COc1cc(/C=C/C(=O)Oc2cc(C)ccc2C(C)C)cc(OC)c1OC` [Melasolv, (5-methyl-2-propan-2-ylphenyl) (E)-3-(3,4,5-trimethoxyphenyl) prop-2-enoate], for which, in assay [1], the “change in cell morphology (flattened or enlarged cells)” value is reported as “reduces changes in skin cells caused by UVB”. The “β-galactosidase (number of stained cells)” value in assay [2] is “reduced to a statistically significant degree”. Also, in assay [3], the “decrease of RNA-age of melanocytes” value is “about 4 years”.
